Here are results for five compounds from patent publication EP0908457B1, “3-(1,2-benzisothiazol- and isoxazol-5-Y1)-2,4(1H,3H)-pyrimidinedione or thione and 3-(1,2-benzisothiazol- and isoxazol-5-y1)-4(3H)-pyrimidinone or thione herbicidal agents” (BASF AKTIENGESELLSCHAFT, priority 1997, dated 1999).

In data set [1] the test system is Cyperus serotinus, Rottb. Kind of data set: Preemergence weed control under flooded paddy conditions, CYPSE (Flatsedge). The data set is classed as in vivo. The conditions noted are these: for CYPSE herbicidal effect rating: preemergence, rated three to four weeks after treatment; for CYPSE: preemergence weeds, herbicidal effect rating 0-9, three to four weeks after treatment.

Data set [2] deals with Cyperus iria. Kind of data set: Preemergence weed control under flooded paddy conditions, CYPIR (Rice Flatsedge). Format: in vivo. The conditions noted are these: flooded paddy; for CYPIR herbicidal effect rating: preemergence, rated three to four weeks after treatment; for CYPIR: preemergence weeds, herbicidal effect rating 0-9, three to four weeks after treatment.
Data set [3] deals with Echinochloa oryzoides (Ard.) Fritsch. Kind of data set: Preemergence weed control under flooded paddy conditions, ECHORC (Watergrass (Calif.)). The data set is classed as in vivo. The conditions noted are these: flooded paddy; for ECHORC herbicidal effect rating: preemergence, rated three to four weeks after treatment; for ECHORC: preemergence weeds, herbicidal effect rating 0-9, three to four weeks after treatment.

In data set [4] the test system is Sagittaria pygmaea, L. Kind of data set: Preemergence weed control under flooded paddy conditions, SAGPY (Arrowhead (Pygmaea)). The conditions noted are these: preemergence, flooded paddy, rated three to four weeks after treatment. The data set is classed as in vivo.
The test system of data set [5] is Oryza sativa, (L.) Tebonnet. The experiment in a line: Rice tolerance to post-transplant applications under flooded paddy conditions (Example 187), ORYSAT (Rice, Tebonnet). The conditions noted are these: for ORYSAT herbicidal effect rating: rated three to four weeks after treatment; for ORYSAT: herbicidal effect rating 0-9, three to four weeks after treatment.
The subject of data set [6] is Monochoria vaginalis, Presl. Kind of data set: Preemergence weed control under flooded paddy conditions, MOOVA (Monochoria). The data set is classed as in vivo. The conditions noted are these: flooded paddy; for MOOVA herbicidal effect rating: preemergence, rated three to four weeks after treatment; for MOOVA: preemergence weeds, herbicidal effect rating 0-9, three to four weeks after treatment.

With `C=C(C(=O)OC)C(C)OCc1nsc2ccc(-n3c(=O)cc(C(F)(F)F)n(C)c3=O)cc12` (stereo not drawn) [Example 212, Methyl 3-{{5-[3,6-dihydro-3-methyl-2,6-dioxo-4-(trifluoromethyl)-1(2H)-pyrimidinyl]-1,2-benzisothiazol-3-yl}methoxy}-2-methylenebutyrate], the “CYPSE herbicidal effect rating” value in data set [1] (Rate 0.0313 kg/ha), in data set [1] (Rate 0.0625 kg/ha), in data set [1] (Rate 0.1250 kg/ha) and in data set [1] (Rate 0.2500 kg/ha) was 0.0 each time. The “CYPIR herbicidal effect rating” value in data set [2] (Rate 0.0313 kg/ha) is 0.0; in data set [2] (Rate 0.0625 kg/ha) it was 0.0; in data set [2] (Rate 0.1250 kg/ha) it was 0.0; in data set [2] (Rate 0.2500 kg/ha) it was 2.0. Also, the “ECHORC herbicidal effect rating” value is reported as 0.0 in data set [3] (Rate 0.0313 kg/ha), 0.0 in data set [3] (Rate 0.0625 kg/ha), 2.0 in data set [3] (Rate 0.1250 kg/ha) and 4.0 in data set [3] (Rate 0.2500 kg/ha). The “SAGPY herbicidal effect rating” value in data set [4] (Rate 0.0313 kg/ha), in data set [4] (Rate 0.0625 kg/ha), in data set [4] (Rate 0.1250 kg/ha) and in data set [4] (Rate 0.2500 kg/ha) was 0.0 in each case. For the same compound, the “ORYSAT herbicidal effect rating” value in data set [5] (Rate 0.0313 kg/ha) is recorded as 3.0; in data set [5] (Rate 0.0625 kg/ha), 4.0; in data set [5] (Rate 0.1250 kg/ha), 6.0; in data set [5] (Rate 0.2500 kg/ha), 7.0. The “MOOVA herbicidal effect rating” value stood at 4.0 in data set [6] (Rate 0.0313 kg/ha), 8.0 in data set [6] (Rate 0.0625 kg/ha), 9.0 in data set [6] (Rate 0.1250 kg/ha) and 9.0 in data set [6] (Rate 0.2500 kg/ha).

For the compound `COC(=O)C(C)Oc1c(-c2nsc3ccc(-n4c(=O)cc(C(F)(F)F)n(C)c4=O)cc23)ccc(C)c1C` (stereo not drawn) [Example 275, Propionic acid, 2-{{6-{5-[3,6-dihydro-3-methyl-2,6-dioxo-4-(trifluoromethyl)-1(2H)-pyrimidinyl]-1,2-benzisothiazol-3-yl}-2,3-xylyl}oxy}-, methyl ester], the “CYPSE herbicidal effect rating” value in data set [1] (Rate 0.0320 kg/ha) amounted to 9.0; in data set [1] (Rate 0.0620 kg/ha) it was 9.0; in data set [1] (Rate 0.1250 kg/ha), 9.0; in data set [1] (Rate 0.2500 kg/ha), 9.0; in data set [1] (Rate 0.5000 kg/ha) it was 0.0. In addition, the “CYPIR herbicidal effect rating” value in data set [2] (Rate 0.0320 kg/ha) is 0.0; in data set [2] (Rate 0.0620 kg/ha), 4.0; in data set [2] (Rate 0.1250 kg/ha), 6.0; in data set [2] (Rate 0.2500 kg/ha) it was 7.0; in data set [2] (Rate 0.5000 kg/ha), 0.0. Besides, the “ECHORC herbicidal effect rating” value is on record as 3.7 in data set [3] (Rate 0.0320 kg/ha); 3.9 in data set [3] (Rate 0.0620 kg/ha); 4.1 in data set [3] (Rate 0.1250 kg/ha); 9.0 in data set [3] (Rate 0.2500 kg/ha); 7.0 in data set [3] (Rate 0.5000 kg/ha). The “SAGPY herbicidal effect rating” value is 0.0 in data set [4] (Rate 0.0320 kg/ha); 0.0 in data set [4] (Rate 0.0620 kg/ha); 3.0 in data set [4] (Rate 0.1250 kg/ha); 9.0 in data set [4] (Rate 0.2500 kg/ha); 0.0 in data set [4] (Rate 0.5000 kg/ha). For the same compound, the “ORYSAT herbicidal effect rating” value came to 0.0 in data set [5] (Rate 0.0320 kg/ha); 0.0 in data set [5] (Rate 0.0620 kg/ha); 3.0 in data set [5] (Rate 0.1250 kg/ha); 4.0 in data set [5] (Rate 0.2500 kg/ha); 5.0 in data set [5] (Rate 0.5000 kg/ha). For the same compound, the “MOOVA herbicidal effect rating” value in data set [6] (Rate 0.0320 kg/ha) is 6.0; in data set [6] (Rate 0.0620 kg/ha) it was 9.0; in data set [6] (Rate 0.1250 kg/ha), 9.0; in data set [6] (Rate 0.2500 kg/ha), 9.0; in data set [6] (Rate 0.5000 kg/ha), 9.0.

Turning to `CC(OS(=O)(=O)c1ccccc1)c1nsc2ccc(-n3c(=O)cc(C(F)(F)F)n(C)c3=O)cc12` (stereo not drawn) [Example 415, 2,4(1H,3H)-Pyrimidinedione, 3-[3-(1-hydroxyethyl)-1,2-benzisothiazol-5-yl]-1-methyl-6-(trifluoromethyl)-, benzenesulfonate (ester)], the CYPSE in data set [1] (0.0320 kg/ha) and in data set [1] (0.0620 kg/ha) was 0.0 throughout. In addition, the CYPIR in data set [2] (0.0320 kg/ha) came out at 0.0; in data set [2] (0.0620 kg/ha) it was 0.0; in data set [2] (0.1250 kg/ha), 2.0; in data set [2] (0.2500 kg/ha) it was 6.0. Besides, the ECHORC in data set [3] (0.0320 kg/ha) was 0.0; in data set [3] (0.0620 kg/ha), 0.0; in data set [3] (0.1250 kg/ha), 3.0; in data set [3] (0.2500 kg/ha), 9.0. The ORYSAT in data set [5] (0.0320 kg/ha) was determined as 3.0; in data set [5] (0.0620 kg/ha), 4.0; in data set [5] (0.1250 kg/ha) it was 5.0; in data set [5] (0.2500 kg/ha), 9.0. Also, the MOOVA in data set [6] (0.0320 kg/ha) is 5.0; in data set [6] (0.0620 kg/ha), 5.0; in data set [6] (0.1250 kg/ha) it was 5.0; in data set [6] (0.2500 kg/ha) it was 8.0.

As to `CN(/N=C/c1nsc2ccc(-n3c(=O)cc(C(F)(F)F)n(C)c3=O)cc12)c1ccccc1` [Example 412, 1,2-Benzisothiazole-3-carboxaldehyde, 5-[3,6-dihydro-3-methyl-2,6-dioxo-4-(trifluoromethyl)-1(2H)-pyrimidinyl]-, 3-(methylphenylhydrazone), (E)-], the CYPSE in data set [1] (0.0320 kg/ha) was determined as 0.0; in data set [1] (0.0620 kg/ha), 0.0; in data set [1] (0.1250 kg/ha) it was 4.0; in data set [1] (0.2500 kg/ha), 6.0. For the same compound, the CYPIR in data set [2] (0.0320 kg/ha) amounted to 0.0; in data set [2] (0.0620 kg/ha), 0.0; in data set [2] (0.1250 kg/ha), 4.0; in data set [2] (0.2500 kg/ha), 8.0. The ECHORC in data set [3] (0.0320 kg/ha), in data set [3] (0.0620 kg/ha) and in data set [3] (0.1250 kg/ha) was 0.0 throughout. Further, the ORYSAT is recorded as 0.0 in data set [5] (0.0320 kg/ha), 0.0 in data set [5] (0.0620 kg/ha), 2.0 in data set [5] (0.1250 kg/ha) and 4.0 in data set [5] (0.2500 kg/ha). Also, the MOOVA in data set [6] (0.0320 kg/ha) amounted to 7.0; in data set [6] (0.0620 kg/ha) it was 9.0; in data set [6] (0.1250 kg/ha), 9.0; in data set [6] (0.2500 kg/ha) it was 9.0.

In the case of `CC(Cl)c1nsc2ccc(-n3c(=O)cc(C(F)(F)F)n(C)c3=O)cc12` (stereo not drawn) [Example 416, 2,4(1H,3H)-Pyrimidinedione, 3-[3-(1-chloroethyl)-1,2-benzisothiazol-5-yl]-1-methyl-6-(trifluoromethyl)-], the CYPSE is 0.0 in data set [1] (0.0320 kg/ha), 0.0 in data set [1] (0.0620 kg/ha), 0.0 in data set [1] (0.1250 kg/ha) and 3.0 in data set [1] (0.2500 kg/ha). In addition, the CYPIR worked out at 4.0 in data set [2] (0.0320 kg/ha), 4.0 in data set [2] (0.0620 kg/ha), 4.0 in data set [2] (0.1250 kg/ha) and 8.0 in data set [2] (0.2500 kg/ha). Further, the ECHORC in data set [3] (0.0320 kg/ha) amounted to 0.0; in data set [3] (0.0620 kg/ha), 3.0; in data set [3] (0.1250 kg/ha), 3.0; in data set [3] (0.2500 kg/ha), 9.0. In addition, the ORYSAT in data set [5] (0.0320 kg/ha) was determined as 6.0; in data set [5] (0.0620 kg/ha), 7.0; in data set [5] (0.1250 kg/ha) it was 9.0; in data set [5] (0.2500 kg/ha) it was 9.0. The MOOVA in data set [6] (0.0320 kg/ha) is listed as 7.0; in data set [6] (0.0620 kg/ha), 7.0; in data set [6] (0.1250 kg/ha), 7.0; in data set [6] (0.2500 kg/ha), 9.0.
